Calls of active or inactive are those of the source. The rule behind the calls is not given here.
Test system: CCRIS mutagenicity, Ames/micronucleus/aberration tests
Assay: CCRIS mutagenicity studies

Structure (SMILES): Nc1cccc(N)c1
- mutagenic call (End Point: IN VITRO CHROMOSOMAL ABERRATIONS, Test System: CHINESE HAMSTER LUNG CELLS (CHL), Metabolic Activation: RAT, LIVER, S-9, KC-400): active; positive (structural changes)
- mutagenic call (End Point: IN VITRO CHROMOSOMAL ABERRATIONS, Test System: CHINESE HAMSTER OVARY CELLS (CHO), Metabolic Activation: NONE): active; positive (structural changes)
- mutagenic call (End Point: IN VITRO CHROMOSOMAL ABERRATIONS, Test System: CHINESE HAMSTER OVARY CELLS (CHO), Metabolic Activation: RAT, LIVER, S-9, AROCLOR 1254): inactive; negative
- mutagenic call (End Point: IN VITRO CHROMOSOMAL ABERRATIONS, Test System: CHL CELLS, Metabolic Activation: NONE): active; positive (structural changes)
- mutagenic call (End Point: IN VITRO CHROMOSOMAL ABERRATIONS, Test System: CHL CELLS, Metabolic Activation: RAT, LIVER, S-9, SODIUM PHENOBARBITAL AND 5,6-BENZOFLAVONE): active; positive (structural changes)
- mutagenic call (End Point: IN VITRO CHROMOSOMAL ABERRATIONS, Test System: CHL/IU CELLS, Metabolic Activation: NONE): active; positive (ploidy changes)
- mutagenic call (End Point: IN VITRO MICRONUCLEUS, Test System: CHL/IU CELLS, Metabolic Activation: NONE): active; positive
- mutagenic call (Test System: AMES SALMONELLA TYPHIMURIUM, Strain/Indicator: TA97, Metabolic Activation: HAMSTER, LIVER, S-9, AROCLOR 1254 (10%), Method: PREINCUBATION): active; positive
- mutagenic call (Test System: AMES SALMONELLA TYPHIMURIUM, Strain/Indicator: TA97, Metabolic Activation: NONE, Method: PREINCUBATION): inactive; negative
- mutagenic call (Test System: AMES SALMONELLA TYPHIMURIUM, Strain/Indicator: TA97, Metabolic Activation: RAT, LIVER, S-9, AROCLOR 1254 (4 OR 10%), Method: STANDARD PLATE): active; positive
- mutagenic call (Test System: AMES SALMONELLA TYPHIMURIUM, Strain/Indicator: TA97, Metabolic Activation: RAT, LIVER, S-9, AROCLOR 1254 (10%), Method: PREINCUBATION): active; positive
- mutagenic call (Test System: AMES SALMONELLA TYPHIMURIUM, Strain/Indicator: TA98(1,8-DNP6), Metabolic Activation: TOBACCO, TX1 CELLS, Method: PREINCUBATION): inactive; negative
- mutagenic call (Test System: AMES SALMONELLA TYPHIMURIUM, Strain/Indicator: TA98, Metabolic Activation: HAMSTER, LIVER, S-9, AROCLOR 1254 (10%), Method: PREINCUBATION): active; positive
- mutagenic call (Test System: AMES SALMONELLA TYPHIMURIUM, Strain/Indicator: TA98, Metabolic Activation: PEA APICAL BUD S-9, Method: PREINCUBATION): active; positive
- mutagenic call (Test System: AMES SALMONELLA TYPHIMURIUM, Strain/Indicator: TA98, Metabolic Activation: PEA APICAL BUD S-9, Method: STANDARD PLATE): active; positive
- mutagenic call (Test System: AMES SALMONELLA TYPHIMURIUM, Strain/Indicator: TA98, Metabolic Activation: PLANT (PERSEA AMERICANA) S-117, Method: STANDARD PLATE): active; positive
- mutagenic call (Test System: AMES SALMONELLA TYPHIMURIUM, Strain/Indicator: TA98, Metabolic Activation: PLANT (ZEA MAYS) S-9, Method: STANDARD PLATE): active; positive
- mutagenic call (Test System: AMES SALMONELLA TYPHIMURIUM, Strain/Indicator: TA98, Metabolic Activation: RAT, BLADDER, S-9, PCB, Method: FLUCTUATION TEST): active; positive
- mutagenic call (Test System: AMES SALMONELLA TYPHIMURIUM, Strain/Indicator: TA98, Metabolic Activation: RAT, LIVER, S-9, AROCLOR 1254 (10%), Method: PREINCUBATION): active; positive
- mutagenic call (Test System: AMES SALMONELLA TYPHIMURIUM, Strain/Indicator: TA98, Metabolic Activation: RAT, LIVER, S-9, AROCLOR 1254, Method: PREINCUBATION): active; positive
- mutagenic call (Test System: AMES SALMONELLA TYPHIMURIUM, Strain/Indicator: TA98, Metabolic Activation: RAT, LIVER, S-9, AROCLOR 1254, Method: STANDARD PLATE): active; positive
- mutagenic call (Test System: AMES SALMONELLA TYPHIMURIUM, Strain/Indicator: TA98, Metabolic Activation: RAT, LIVER, S-9, PCB, Method: PREINCUBATION): active; positive
- mutagenic call (Test System: AMES SALMONELLA TYPHIMURIUM, Strain/Indicator: TA98, Metabolic Activation: RAT, LIVER, S-9, PHENOBARBITAL AND 5,6-BENZOFLAVONE, Method: PREINCUBATION): active; positive
- mutagenic call (Test System: AMES SALMONELLA TYPHIMURIUM, Strain/Indicator: TA98, Metabolic Activation: S-9, Method: PREINCUBATION): active; positive
- mutagenic call (Test System: AMES SALMONELLA TYPHIMURIUM, Strain/Indicator: TA98, Metabolic Activation: TOBACCO, TX1 CELLS, Method: PREINCUBATION): active; positive
- mutagenic call (Test System: AMES SALMONELLA TYPHIMURIUM, Strain/Indicator: TA100, Metabolic Activation: HAMSTER, LIVER, S-9, AROCLOR 1254 (10%), Method: PREINCUBATION): active; positive
- mutagenic call (Test System: AMES SALMONELLA TYPHIMURIUM, Strain/Indicator: TA100, Metabolic Activation: NONE, Method: STANDARD PLATE): inactive; negative
- mutagenic call (Test System: AMES SALMONELLA TYPHIMURIUM, Strain/Indicator: TA100, Metabolic Activation: PEA APICAL BUD S-9, Method: PREINCUBATION): inactive; negative
- mutagenic call (Test System: AMES SALMONELLA TYPHIMURIUM, Strain/Indicator: TA100, Metabolic Activation: PEA APICAL BUD S-9, Method: STANDARD PLATE): inactive; negative
- mutagenic call (Test System: AMES SALMONELLA TYPHIMURIUM, Strain/Indicator: TA100, Metabolic Activation: RAT, BLADDER, S-9, PCB, Method: FLUCTUATION TEST): active; positive
- mutagenic call (Test System: AMES SALMONELLA TYPHIMURIUM, Strain/Indicator: TA100, Metabolic Activation: RAT, LIVER, S-9, AROCLOR 1254 (10%), Method: PREINCUBATION): active; positive
- mutagenic call (Test System: AMES SALMONELLA TYPHIMURIUM, Strain/Indicator: TA100, Metabolic Activation: RAT, LIVER, S-9, AROCLOR 1254, Method: PREINCUBATION): active; positive
- mutagenic call (Test System: AMES SALMONELLA TYPHIMURIUM, Strain/Indicator: TA100, Metabolic Activation: RAT, LIVER, S-9, PCB, Method: PREINCUBATION): active; positive
